Measurements published in PubChem BioAssay AID1320 (NMMLSC, 2008).
Activity calls are given as the source filed them. How the calls were made is not given here.

What follows are compounds tested against Bcl-2-related protein A1 (Homo sapiens) (UniProt Q16548) (assay: inhibitors of Bim binding to Bfl-1, dose response, biochemical, multiplexed, bead-based flow cytometry (AID 1320; on percent span (inhibition): test concentration not given here)). Settings: Bim peptide-Bfl-1 binding, fluorescence.
Chain of Bcl-2-related protein A1 (Homo sapiens) (Q16548 whole entry, looked up): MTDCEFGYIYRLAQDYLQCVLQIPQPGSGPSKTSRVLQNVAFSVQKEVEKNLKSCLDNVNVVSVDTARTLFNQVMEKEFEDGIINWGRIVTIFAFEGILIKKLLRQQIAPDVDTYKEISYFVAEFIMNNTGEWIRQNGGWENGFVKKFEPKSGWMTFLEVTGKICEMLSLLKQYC
Work on `CCC(=O)N(CC)C1=C(O)c2ccccc2C(=O)C1=O` yielded an EC50 of 80 nM.
`O=C(N/N=C/c1ccc(O)c(O)c1O)/C(=C/c1ccc([N+](=O)[O-])cc1)NC(=O)c1ccccc1` showed an EC50 of 5220 nM.
For `COc1ccc(N2C(=O)C(Cl)=C(Nc3c(C)n(C)n(-c4ccccc4)c3=O)C2=O)cc1`, the EC50 was “inactive”.

Same assay, conditions: Bim peptide-Bfl-1 binding, fluorescence, active compounds read high
`Cc1ccc(Nc2nc(-c3c(C)nc4ncccn34)cs2)cc1` was tested, and the “percent span (inhibition)” value was “inactive”.
`O=C(NCc1ccccc1)C(=O)Nc1nc(C23CC4CC(CC(C4)C2)C3)cs1` was tested, and the “percent span (inhibition)” value was “inactive”.
For `O=S1(=O)N=C(N(CCO)/N=C/C=C/c2ccccc2)c2ccccc21`, the “percent span (inhibition)” value was “inactive”.
In the case of `CCCn1c(SCC(=O)Nc2ccccc2-c2ccccc2)nnc1-c1ccoc1C`, the “percent span (inhibition)” value is reported as “inactive”.
In the case of `Cc1ccc(-c2n[nH]c(=S)n2-c2ccccc2)cc1`, the “percent span (inhibition)” value is reported as “inactive”.
In the case of `CC(=O)N1CCN(C(=O)c2ccc(-n3c(C)ccc3C)cc2)CC1`, the “percent span (inhibition)” value is reported as “inactive”.
`Cc1ccc(NS(=O)(=O)c2cc(NC(=O)c3ccc4c(c3)NC(=O)CS4)ccc2C)c(C)c1` was tested, and the “percent span (inhibition)” value was “inactive”.
In the case of `Cc1cc(C)c[n+](-c2nc3ccccc3nc2C(=C=[N-])C#N)c1`, the “percent span (inhibition)” value is reported as “inactive”.
For `COc1ccccc1Oc1ccc2c(c1)C(=O)N(c1ccccc1)C2=O`, the “percent span (inhibition)” value was “inactive”.
For `CCOc1ccc(C(=O)Nc2nnn(CC)n2)cc1`, the “percent span (inhibition)” value was “inactive”.
`COc1ccc(CN(CC(=O)NC2CCCC2)C(=O)CCC(=O)Nc2cc(C)on2)cc1` was tested, and the “percent span (inhibition)” value was “inactive”.
`CCOc1ccc(N2C(=O)C(Cl)=C(Nc3ccccc3O)C2=O)cc1` was tested, and the “percent span (inhibition)” value was “inactive”.
In the case of `COc1ccc(C)cc1Nc1ccc(C(=O)O)cc1[N+](=O)[O-]`, the “percent span (inhibition)” value is reported as “inactive”.
For `CCOC(=O)c1[nH]cnc1C(=O)NC(C)C`, the “percent span (inhibition)” value was “inactive”.
`CC(C)(C)c1nc(NCCN2CCOCC2)c2nnn(Cc3ccccc3Cl)c2n1` was tested, and the “percent span (inhibition)” value was “inactive”.
In the case of `Cc1cc(/C=C(/C#N)C(=O)Nc2ccc(Cl)cc2)c(C)n1-c1cccnc1`, the “percent span (inhibition)” value is reported as “inactive”.
With `CC(C)C(=O)N1CCN(c2ccc([N+](=O)[O-])cc2Cl)CC1` the “percent span (inhibition)” value was “inactive”.
`Cn1c(N)c(C(=O)COC(=O)c2cncc(Br)c2)c(=O)n(C)c1=O` was tested, and the “percent span (inhibition)” value was “inactive”.
In the case of `CC(NC(=O)Nc1ccccn1)N1C(=O)C2C3C=CC(C3)C2C1=O` (centres undefined), the “percent span (inhibition)” value is reported as “inactive”.
With `Cc1ccc(C(=O)N/N=C2/NC(=O)CC(C(=O)Nc3ccccc3)S2)cc1` (centres undefined) the “percent span (inhibition)” value was “inactive”.
With `O=C(COC(=O)c1ccccn1)NC1CCCCC1` the “percent span (inhibition)” value was “inactive”.
For `Cc1ccc(C(=O)N(CCCN(C)C)c2nc3ccc(Cl)cc3s2)cc1C`, the “percent span (inhibition)” value was “inactive”.
With `O=C(NNC(=O)C12CC3CC(CC(C3)C1)C2)c1ccco1` the “percent span (inhibition)” value was “inactive”.
For `O=C1NC(=O)C2(Cc3c(nc4ccccn4c3=O)N3CCCCCC32)C(=O)N1Cc1ccccc1` (centres undefined), the “percent span (inhibition)” value was “inactive”.
With `CCNC(=S)Nc1cc(OCC)c(NC(=O)c2cccs2)cc1OCC` the “percent span (inhibition)” value was “inactive”.
`CCOC(=O)c1nc(Nc2ccc(C(=O)OC)cc2)c2ccccc2n1` was tested, and the “percent span (inhibition)” value was “inactive”.
With `CCc1cccc(CC)c1NC(=S)N1CCn2cccc2C1c1cccnc1` (centres undefined) the “percent span (inhibition)” value was “inactive”.
`Cc1ccnc(NS(=O)(=O)c2ccc(NC(=O)c3c(-c4ccccc4Cl)noc3C)cc2)n1` was tested, and the “percent span (inhibition)” value was “inactive”.
For `CCN(CC)CCN(C(=O)c1ccc(N2C(=O)CCC2=O)cc1)c1nc2cc3c(cc2s1)OCCO3`, the “percent span (inhibition)” value was “inactive”.
With `COc1c(F)c(F)c(C(=O)Nc2ccccc2N2CCN(C(=O)C(C)C)CC2)c(F)c1F` the “percent span (inhibition)” value was “inactive”.
With `CCOC(=O)C1=C(CP(=O)(c2ccccc2)c2ccccc2)NC(=O)NC1c1ccc(OC)cc1` (centres undefined) the “percent span (inhibition)” value was “inactive”.
`O=S1(=O)N=C(N(CCO)/N=C/c2ccncc2)c2ccccc21` was tested, and the “percent span (inhibition)” value was “inactive”.
`O=C(Nc1cccc(Cl)c1)Nc1ccnc(-c2cccnc2)n1` was tested, and the “percent span (inhibition)” value was “inactive”.
`Cc1ccc(-n2[nH]c(C)c(/C=N/Nc3ccc([N+](=O)[O-])cc3[N+](=O)[O-])c2=O)cc1C` was tested, and the “percent span (inhibition)” value was “inactive”.
In the case of `CS(=O)(=O)NN1C(=O)c2ccccc2NC1c1cccc2cccnc12` (centres undefined), the “percent span (inhibition)” value is reported as “inactive”.
With `CCc1ccc(NC(=O)Cc2ccc(OC)cc2)cc1` the “percent span (inhibition)” value was “inactive”.
For `N/C(=N\N=C/c1ccc(Br)cc1)N/N=C\c1ccc(Br)cc1`, the “percent span (inhibition)” value was “inactive”.
For `CSc1n[nH]c2nc3c(c(=O)n12)C1(CCCC1)Cc1ccccc1-3`, the “percent span (inhibition)” value was “inactive”.
In the case of `Cc1ccc(C(=O)NNC(=O)c2ccc3ncccc3c2)cc1`, the “percent span (inhibition)” value is reported as “inactive”.
For `Cc1cc(-c2nnc(CCC(=O)NC(C)c3cccc4ccccc34)o2)no1` (centres undefined), the “percent span (inhibition)” value was “inactive”.
`CCNCc1cc(Br)c(OCC(=O)Nc2ccccc2)c(OC)c1` was tested, and the “percent span (inhibition)” value was “inactive”.
In the case of `COC(=O)/C(=C/c1ccc(F)cc1)NC(C)=O`, the “percent span (inhibition)” value is reported as “inactive”.
`Clc1ccc2c(N/N=C/c3cccc(Br)c3)ccnc2c1` was tested, and the “percent span (inhibition)” value was “inactive”.
With `O=C(CC1NCCNC1=O)Nc1cccc([N+](=O)[O-])c1` (centres undefined) the “percent span (inhibition)” value was “inactive”.
`O=C(NCCCN1CCN(CCCNC(=O)c2cc([N+](=O)[O-])ccc2Cl)CC1)c1cc([N+](=O)[O-])ccc1Cl` was tested, and the “percent span (inhibition)” value was “inactive”.
For `COc1ccc(S(=O)(=O)NCCOc2cccc3cccnc23)cc1OC`, the “percent span (inhibition)” value was “inactive”.
In the case of `Cc1ccc(C)c(Oc2ncnc(N)c2[N+](=O)[O-])c1`, the “percent span (inhibition)” value is reported as “inactive”.
In the case of `CN(Cc1cccs1)C(=O)CCc1c[nH]c2ccccc12`, the “percent span (inhibition)” value is reported as “inactive”.
With `Cn1cc(CN2C[C@]3(C)C[C@H]2CC(C)(C)C3)c(-c2ccc3c(c2)OCCO3)n1` the “percent span (inhibition)” value was “inactive”.
With `CCc1nnc(NS(=O)(=O)c2ccc(N=CC3=C(O)CC(C)(C)CC3=O)cc2)s1` the “percent span (inhibition)” value was “inactive”.
For `Cc1ccnc(SCc2cc(=O)c(OC(=O)c3ccc(Cl)c([N+](=O)[O-])c3)co2)n1`, the “percent span (inhibition)” value was “inactive”.
For `COc1cc(/C=C2\S/C(=N/S(=O)(=O)c3ccccc3)NC2=O)c([N+](=O)[O-])cc1OC`, the “percent span (inhibition)” value was “inactive”.
For `CC1(C)SC(=S)N(NC(=O)Nc2ccccc2)C1N(O)C(=O)Nc1cccc2ccccc12` (centres undefined), the “percent span (inhibition)” value was “inactive”.
In the case of `N=C1C(c2nc3ccccc3s2)=C(O)CN1Cc1ccccc1`, the “percent span (inhibition)” value is reported as “inactive”.
In the case of `C=CCn1c(C)cc(-c2csc(NC)n2)c1C`, the “percent span (inhibition)” value is reported as “inactive”.
In the case of `CCN1/C(=C/c2ccc3cc(C)ccc3[n+]2CC)Sc2cc(C)c(C)cc21`, the “percent span (inhibition)” value is reported as “inactive”.
For `CCn1c(C)c(/C=N/Nc2nc3ccccc3s2)c2ccccc21`, the “percent span (inhibition)” value was “inactive”.
In the case of `COCCNc1nc(=S)[nH]c2cc(OC)c(OC)cc12`, the “percent span (inhibition)” value is reported as “inactive”.
For `CCOC(=O)C1(Cc2cccc(OC)c2)CCN(Cc2cccc(OC)c2OC)CC1`, the “percent span (inhibition)” value was “inactive”.
`CC(C(=O)Nc1cc([N+](=O)[O-])ccc1Cl)N1CCN(c2ccc(O)cc2)CC1` (centres undefined) was tested, and the “percent span (inhibition)” value was “inactive”.
For `CN1CCN(c2ccc(N)cc2)CC1`, the “percent span (inhibition)” value was “inactive”.
For `COc1ccc(N2CCN(CCCNC(=O)CCCn3c(=O)[nH]c4ccsc4c3=O)CC2)cc1`, the “percent span (inhibition)” value was “inactive”.
In the case of `O=C(CCc1ccccc1)N1CCN(c2ccccn2)CC1`, the “percent span (inhibition)” value is reported as “inactive”.
With `O=C(CSc1nnc(-c2ccccc2)c(-c2ccccc2)n1)N1CCc2ccccc21` the “percent span (inhibition)” value was “inactive”.
For `N/C(Cc1ccc(Cl)c(Cl)c1)=N\OC(=O)c1cccs1`, the “percent span (inhibition)” value was “inactive”.
In the case of `O=C(O)c1cccc(NC2=C(Cl)C(=O)c3ccccc3C2=O)c1`, the “percent span (inhibition)” value is reported as “inactive”.
